Measurements taken from ChEMBL document CHEMBL1146942, “Abacavir prodrugs: microwave-assisted synthesis and their evaluation of anti-HIV activities” (Bioorg Med Chem Lett, 2006).

What was measured:
[1] = system: Human immunodeficiency virus 1; assay: Antiviral activity against HIV1 replication in CEM cell line; type: functional, organism-based; settings: Human immunodeficiency virus 1, CCRF-CEM
CCRF-CEM [2] = assay: Cytotoxicity against CEM cell line; type: functional; settings: Homo sapiens
CCRF-CEM [3] = assay: Selectivity index (CC50/EC50) for inhibition of HIV1 replication in CEM cell line; type: functional

SMILES | EC50 [1] [µM] | CC50 (CCRF-CEM [2]) [µM] | Selectivity index (CCRF-CEM [3])
COc1ccc(/C=N/c2nc(NC3CC3)c3ncn(C4C=CC(CO)C4)c3n2)c(O)c1 (stereo not given) | 1.2 | 100 | –
O=C1Nc2ccccc2/C1=N\c1nc(NC2CC2)c2ncn(C3C=CC(CO)C3)c2n1 (stereo not given) | 5 | 48 | –
Nc1nc(NC2CC2)c2ncn([C@H]3C=C[C@@H](CO)C3)c2n1 [ABACAVIR] | 1.6 | 83 | –
OCC1C=CC(n2cnc3c(NC4CC4)nc(/N=C(\c4ccccc4)c4ccc(Br)cc4)nc32)C1 (stereo not given) | 3.7 | 45 | –
O=C1Nc2ccc(F)cc2/C1=N\c1nc(NC2CC2)c2ncn(C3C=CC(CO)C3)c2n1 (stereo not given) | 6.2 | 56 | –
O=[N+]([O-])c1ccc(/C=N/c2nc(NC3CC3)c3ncn(C4C=CC(CO)C4)c3n2)cc1 (stereo not given) | 0.52 | 12 | –
C/C(=N\c1nc(NC2CC2)c2ncn(C3C=CC(CO)C3)c2n1)c1ccc(O)cc1 (stereo not given) | 1.9 | 62 | –

Now from value to molecule, other results behind:

EC50 [1] [µM] | SMILES | CC50 (CCRF-CEM [2]) [µM] | Selectivity index (CCRF-CEM [3])
0.48 | O=[N+]([O-])c1ccccc1/C=N/c1nc(NC2CC2)c2ncn(C3C=CC(CO)C3)c2n1 (stereo not given) | 13 | –
0.05 | Cc1ccc(/C=N/c2nc(NC3CC3)c3ncn(C4C=CC(CO)C4)c3n2)cc1 (stereo not given) | > 100 | >2000
0.36 | COc1ccc(/C=N/c2nc(NC3CC3)c3ncn(C4C=CC(CO)C4)c3n2)cc1 (stereo not given) | > 100 | –
0.06 | CN(C)c1ccc(/C=N/c2nc(NC3CC3)c3ncn(C4C=CC(CO)C4)c3n2)cc1 (stereo not given) | > 100 | –
2.1 | Cc1ccc2c(c1)/C(=N\c1nc(NC3CC3)c3ncn(C4C=CC(CO)C4)c3n1)C(=O)N2 (stereo not given) | 78 | –
